This is an account of results in patent publication US20240010678A1, “METHOD OF TREATMENT OF IRRITABLE BOWEL SYNDROME” (THE JOHNS HOPKINS UNIVERSITY, priority 2020, published 2024).

“Also recorded” adds a separate entry of the source.

One experiment relates to mouse model of IBS. The experiment can be described thus: Visceromotor reflex (VMR) response to colorectal distention (CRD) in a mouse model of IBS. The conditions noted are these: graded colorectal distention, KSL-W given intracolonically (FIG. 1), rifaximin FIG. 2. Type of experiment: in vivo. How it is done: Mouse pups at postnatal day 10 will receive a […] enema infusion with 0.5% acetic acid or saline. The pup will be gently held by hand with head down. A poly-ethylene tubing (PE-10) connected to a 100 ul Hamilton syringe is insert through the rectum into the distal colon about 1.5 cm from the anus. 20 μl of 0.5% acetic acid or saline is infused slowly (about second). The pups are put back with dam and wean at 3 weeks old. The mice are allowed to grow into adulthood (8-12 weeks) when they are ready for test of hypersensitivity (increased pain to graded painful stimulus).
Visceromotor reflex (VMR) and Abdominal Withdrawal Reflex (AWR) response to colorectal distention (CRD) for assessing visceral pain sensitivity. The VMR is a reflex measured using an electromyographic (EMG) recording obtained from the external oblique muscle. […] Then, 30-45 min later, the VMR response to CRD is measured by EMG.
Procedure of electrodes implantation: Under a cocktail of Ketamine/Xylazine (80:8 mg/kg body weight) or 1-2% isoflurane. adult mice undergo surgery to implant abdominal electrodes. The depth of anesthesia will be assessed by pinching the toes for a toe pinch response (negative) every 15 minutes during the surgical procedure. […]
EMG response to CRD: EMG is recorded from two externalized electrodes implanted in the external oblique muscle by using CED 1401 plus and Spike 2 software. […]

The subject of experiment [1] is biofilms that mimic supragingival or cariogenic plaque. The following applies: cited from earlier work.
For another experiment, the system named is oral microorganisms. The following applies: U.S. Pat. Nos. 7,494,980 and 8,778,889; cited from earlier work.
Experiment [2] has as its system microbial balance in the colon. Kind of experiment: Effect on microbial balance in the colon. Format: in vivo. The following applies: FIG. 1 cited. How it is done: Using a novel comprehensive, high-density DNA microarray (PhyloChip) a phylogenetic analysis of the microbial community of the large bowel was performed. […] Even more striking was the dramatic change in the ratio of Firmicutes relative to Bacteroidetes, where “IBS” animals were enriched more with Bacteroidetes and also contained a different composition of species within this phylum.

In another experiment the test system is pathogenic bacteria. The experiment can be described thus: Selectivity of the antimicrobial peptide for pathogenic versus beneficial bacteria.

For `CO[C@H]1/C=C/O[C@@]2(C)Oc3c(C)c(O)c4c(O)c(c5c(nc6cc(C)ccn65)c4c3C2=O)NC(=O)/C(C)=C\C=C\[C@H](C)[C@H](O)[C@@H](C)[C@@H](O)[C@@H](C)[C@H](OC(C)=O)[C@@H]1C` [rifaximin, reference compound], in the experiment on mouse model of IBS, the “pain behavior (VMR response to colorectal distention)” value was “attenuates pain behavior”.
“NH2-Lys-Lys-Val-Val-Phe-Lys-Val-Lys-Phe-Lys-CO NH2 (H-KKVVFKVKFK-NH2) [KSL, antimicrobial decapeptide]”: the “prevention of biofilm formation” value in experiment [1] is reported as “effective in preventing the formation of biofilms that mimic supragingival or cariogenic plaque”. Besides, the “antibacterial activity / inhibition of growth of oral microorganisms” value with oral microorganisms is “possess a broad range of antibacterial activity; also recorded: inhibiting the growth of various oral microorganisms”.
As to “NH2-Lys-Lys-Val-Val-Phe-Trp-Val-Lys-Phe-Lys-CO NH2 (H-KKVVFWVKFK-NH2) [KSL-W, L-tryptophan analog of KSL; L-lysine at position six replaced with L-tryptophan]”, the “microbial balance in the colon” value in experiment [2] is reported as “resets the microbial balance in the colon”. Further, the “pain behavior (VMR response to colorectal distention)” value in the experiment with mouse model of IBS is reported as “attenuates pain behavior”. The “selectivity against pathogenic versus beneficial bacteria” value in the experiment with pathogenic bacteria is “works against pathogenic bacteria but spares beneficial ones; also recorded: selective against pathogenic bacteria but not beneficial bacteria”.
